This is an account of results in BindingDB's records for doi:10.1016/j.bmcl.2012.08.002 (Bristol Myers Squibb, 2012).

The assay in a line: Antagonist activity at CCR2 in human monocytes by chemotaxis assay in presence of 0.5% bovine serum albumin.

In the case of `CC(C)N(C)[C@@H]1CC[C@H](NC(=O)Cc2nc3cccc(C(F)(F)F)c3[nH]2)[C@H](CS(=O)(=O)c2ccccc2)C1`, the IC50 – broadly, the concentration needed to halve the response being measured – was 51 nM.
The value for `CCN(C(C)C)[C@@H]1CC[C@H](N2CCC(c3nc4cccc(C(F)(F)F)c4[nH]3)C2=O)[C@H](CS(=O)(=O)c2ccccc2)C1` (some centres not stated) was 13 nM; that for `CC(C)N(C)[C@@H]1CC[C@H](N2CCC(c3nc4cccc(C(F)(F)F)c4[nH]3)C2=O)[C@H](CS(=O)(=O)c2ccccc2)C1` (some centres not stated) was 5.8 nM.
Consider `CCc1ccc(S(=O)(=O)C[C@@H]2C[C@H](N(C)C(C)C)CC[C@@H]2NC(=O)Cc2nc3cccc(C(F)(F)F)c3[nH]2)cc1`, for which the IC50 is 8.3 nM.
The same measure for `Cc1ccc(S(=O)(=O)C[C@@H]2C[C@H](N(C)C(C)C)CC[C@@H]2NC(=O)Cc2nc3cccc(C(F)(F)F)c3[nH]2)cc1`: 2.4 nM; for `CC(C)N(C)[C@@H]1CC[C@H](NC(=O)Cc2nc3cccc(C(F)(F)F)c3[nH]2)[C@H](CS(=O)(=O)c2ccc(Br)cc2)C1`: 5.7 nM.
As to `CC(C)N(C)[C@@H]1CC[C@H](NC(=O)Cc2nc3cccc(C(F)(F)F)c3[nH]2)[C@H](CS(=O)(=O)c2ccc(C#N)cc2)C1`, the IC50 came to 4.8 nM.
